In patent publication US10188634B2, “3-(3H-imidazo[4,5-C]pyridin-2-yl)-1 H-pyrazolo[4,3-B]pyridines and therapeutic uses thereof” (Samumed, LLC, priority 2015, dated 2019):

What was measured:
Assay type in all cases: cell-based
SW480 colon cancer cells = assay: Cell viability assay (CellTiter-Blue) in SW480 colon cancer cells; settings: Homo sapiens, 96 h; for EC50: four days incubation, CellTiter-Blue cell viability; for inhibition at 10 µM: four days, CellTiter-Blue, read-out: percent inhibition at 10 μM (given for EC50 of >10 μM)
In short: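 About 2×10^3 SW480 colon cancer cells per well were exposed to compound (8-point 1:3 dilutions, 10 μM to 0.004 μM) for four days at 37 °C. Viability was read by CellTiter-Blue resazurin reduction (~3 h, Ex 560/Em 590). EC50 from nonlinear regression; above 10 μM, % inhibition at 10 μM is reported.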

IL-6 in THP-1 cells = assay: Inhibition of IL-6 in LPS-stimulated THP-1 human monocyte cells (HTRF); settings: IL-6 HTRF; for EC50: 500 ng/mL LPS, 22 hours; for inhibition at 10 µM: LPS, read-out: percent inhibition in brackets (given for EC50 >10 μM)
In short: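 THP-1 cells, serum-reduced (1% FBS) for 24 h, were exposed to compound (1:3, 10-point series from 10 μM; 0.1% DMSO) for 2 h, then 500 ng/mL LPS for 22 h at 37° C. Secreted IL-6 measured by HTRF (665/620 ratio), normalised to DMSO; EC50 by four-parameter fit, else % inhibition at 10 μM.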

[1] = system: Wnt activity (Sp5-Luc reporter, human Sp5 promoter with eight TCF/LEF binding sites) in SW480 colon carcinoma cells; assay: Screening assay for Wnt activity: Sp5-Luc reporter gene assay in SW480 cells; settings: for EC50: 10-point dose-response starting from 10 μM, overnight incubation; for inhibition at 10 µM: read-out: percent inhibition at 10 μM (given for EC50 of >10 μM)
In short: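 SW480 cells stably carrying Sp5-Luc reporter (eight TCF/LEF sites) plated at 4,000/well in 1% FBS medium with compound (10-point 1:3 series from 10 μM, 0.1% DMSO) overnight at 37 °C. BrightGlo luminescence normalized to DMSO; EC50 by four-parameter fit, else % inhibition at 10 μM.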

EC50 (SW480 colon cancer cells)	EC50 (IL-6 in THP-1 cells)	EC50 [1]	Compound	inhibition at 10 µM (IL-6 in THP-1 cells)	inhibition at 10 µM (SW480 colon cancer cells)	inhibition at 10 µM [1]
856 nM	> 10 µM	641 nM	Cc1ccncc1-c1ccc2[nH]nc(-c3nc4c(-c5ccsc5)cncc4[nH]3)c2n1 [Compound 257, 5-(4-Methylpyridin-3-yl)-3-(7-(thiophen-3-yl)-3H-imidazo[4,5-c]pyridin-2-yl)-1H-pyrazolo[4,3-b]pyridine]	11.5%	–	–
> 10000 nM	> 10 µM	> 10000 nM	O=C(CC1CCNCC1)Nc1cncc(-c2ccc3[nH]nc(-c4nc5c(-c6ccsc6)cncc5[nH]4)c3n2)c1 [Compound 629, 2-(Piperidin-4-yl)-N-(5-(3-(7-(thiophen-3-yl)-3H-imidazo[4,5-c]pyridin-2-yl)-1H-pyrazolo[4,3-b]pyridin-5-yl)pyridin-3-yl)acetamide]	45.5%	2.8%	30.6%
> 10000 nM	> 10 µM	3210 nM	Cc1ccncc1-c1ccc2[nH]nc(-c3nc4c(-c5cc(F)cc(CNS(C)(=O)=O)c5)cncc4[nH]3)c2n1 [Compound 453, N-(3-Fluoro-5-(2-(5-(4-methylpyridin-3-yl)-1H-pyrazolo[4,3-b]pyridin-3-yl)-3H-imidazo[4,5-c]pyridin-7-yl)benzyl)methanesulfonamide]	23.9%	37.3%	–
646 nM	2.56 µM	597 nM	CC(C)Nc1cncc(-c2ccc3[nH]nc(-c4nc5c(-c6ccoc6)cncc5[nH]4)c3n2)c1 [Compound 292, 5-(3-(7-(Furan-3-yl)-3H-imidazo[4,5-c]pyridin-2-yl)-1H-pyrazolo[4,3-b]pyridin-5-yl)-N-isopropylpyridin-3-amine]	–	–	–
5540 nM	> 10 µM	3440 nM	CN(C)CCOc1cncc(-c2ccc3[nH]nc(-c4nc5c(-c6cccc(F)c6)cncc5[nH]4)c3n2)c1 [Compound 487, 2-((5-(3-(7-(3-Fluorophenyl)-3H-imidazo[4,5-c]pyridin-2-yl)-1H-pyrazolo[4,3-b]pyridin-5-yl)pyridin-3-yl)oxy)-N,N-dimethylethan-1-amine]	33.4%	–	–
784 nM	1.54 µM	1100 nM	CN(C)Cc1cncc(-c2ccc3[nH]nc(-c4nc5c(-c6cccc(F)c6)cncc5[nH]4)c3n2)c1 [Compound 13, 1-(5-(3-(7-(3-Fluorophenyl)-3H-imidazo[4,5-c]pyridin-2-yl)-1H-pyrazolo[4,3-b]pyridin-5-yl)pyridin-3-yl)-N,N-dimethylmethanamine]	–	–	–
1020 nM	5.79 µM	1040 nM	FC1(F)CCN(Cc2cncc(-c3ccc4[nH]nc(-c5nc6c(-c7ccsc7)cncc6[nH]5)c4n3)c2)C1 [Compound 278, 5-(5-((3,3-difluoropyrrolidin-1-yl)methyl)pyridin-3-yl)-3-(7-(thiophen-3-yl)-3H-imidazo[4,5-c]pyridin-2-yl)-1H-pyrazolo[4,3-b]pyridine]	–	–	–

Further lines, the compound ahead of its results:

Compound	EC50 (SW480 colon cancer cells)	EC50 (IL-6 in THP-1 cells)	EC50 [1]	inhibition at 10 µM (IL-6 in THP-1 cells)	inhibition at 10 µM (SW480 colon cancer cells)	inhibition at 10 µM [1]
c1cc(-c2cncc3[nH]c(-c4n[nH]c5ccc(-c6cncc(CNCC7CCCC7)c6)nc45)nc23)co1 [Compound 305, 1-Cyclopentyl-N-((5-(3-(7-(furan-3-yl)-3H-imidazo[4,5-c]pyridin-2-yl)-1H-pyrazolo[4,3-b]pyridin-5-yl)pyridin-3-yl)methyl)methanamine]	4610 nM	> 10 µM	8610 nM	24.5%	–	–
Cc1cn(-c2cncc3[nH]c(-c4n[nH]c5ccc(-c6cncc(OCCN(C)C)c6)nc45)nc23)cn1 [Compound 599, N,N-Dimethyl-2-((5-(3-(7-(4-methyl-1H-imidazol-1-yl)-3H-imidazo[4,5-c]pyridin-2-yl)-1H-pyrazolo[4,3-b]pyridin-5-yl)pyridin-3-yl)oxy)ethan-1-amine]	> 10000 nM	> 10 µM	> 10000 nM	22.5%	7.1%	6.3%
Oc1cncc(-c2ccc3[nH]nc(-c4nc5c(N6CCCCC6)cncc5[nH]4)c3n2)c1 [Compound 585, 5-(3-(7-(Piperidin-1-yl)-3H-imidazo[4,5-c]pyridin-2-yl)-1H-pyrazolo[4,3-b]pyridin-5-yl)pyridin-3-ol]	> 10000 nM	1.38 µM	> 10000 nM	–	2.4%	4.3%
Fc1cccc(-c2cncc3[nH]c(-c4n[nH]c5ccc(-c6cncc(CN7CCC(F)(F)C7)c6)nc45)nc23)c1 [Compound 26, 5-(5-((3,3-Difluoropyrrolidin-1-yl)methyl)pyridin-3-yl)-3-(7-(3-fluorophenyl)-3H-imidazo[4,5-c]pyridin-2-yl)-1H-pyrazolo[4,3-b]pyridine]	980 nM	> 10 µM	1090 nM	21%	–	–
Fc1ccc(-c2cncc3[nH]c(-c4n[nH]c5ccc(-c6cncc(CN7CCCC7)c6)nc45)nc23)cc1 [Compound 42, 3-(7-(4-Fluorophenyl)-3H-imidazo[4,5-c]pyrid-2-yl)-5-(5-(pyrrolidin-1-ylmethyl)pyridin-3-yl)-1H-pyrazolo[4,3-b]pyridine]	1050 nM	> 10 µM	3350 nM	42%	–	–
CC(C)(C)C(=O)Nc1cncc(-c2ccc3[nH]nc(-c4nc5c(-c6ccc(Cl)s6)cncc5[nH]4)c3n2)c1 [Compound 998, N-(5-(3-(7-(5-Chlorothiophen-2-yl)-3H-imidazo[4,5-c]pyridin-2-yl)-1H-pyrazolo[4,3-b]pyridin-5-yl)pyridin-3-yl)pivalamide]	> 10000 nM	> 10 µM	551 nM	43%	1.5%	–
O=C(Nc1cncc(-c2ccc3[nH]nc(-c4nc5c(-c6ccc(Cl)s6)cncc5[nH]4)c3n2)c1)C1CCC1 [Compound 1011, N-(5-(3-(7-(5-Chlorothiophen-2-yl)-3H-imidazo[4,5-c]pyridin-2-yl)-1H-pyrazolo[4,3-b]pyridin-5-yl)pyridin-3-yl)cyclobutanecarboxamide]	2510 nM	> 10 µM	800 nM	32.4%	–	–
CN(C)c1cncc(-c2ccc3[nH]nc(-c4nc5c(N6CCCCC6)cncc5[nH]4)c3n2)c1 [Compound 175, N,N-dimethyl-5-(3-(7-(piperidin-1-yl)-3H-imidazo[4,5-c]pyridin-2-yl)-1H-pyrazolo[4,3-b]pyridin-5-yl)pyridin-3-amine]	3840 nM	0.122 µM	3970 nM	–	–	–
Clc1ccc(-c2cncc3[nH]c(-c4n[nH]c5ccc(-c6cncc(CN7CCCC7)c6)nc45)nc23)s1 [Compound 1004, 3-(7-(5-Chlorothiophen-2-yl)-3H-imidazo[4,5-c]pyridin-2-yl)-5-(5-(pyrrolidin-1-ylmethyl)pyridin-3-yl)-1H-pyrazolo[4,3-b]pyridine]	2940 nM	> 10 µM	3790 nM	29.8%	–	–
CC(C)(C)C(=O)Nc1cncc(-c2ccc3[nH]nc(-c4nc5c(-c6ccc(F)cc6)cncc5[nH]4)c3n2)c1 [Compound 36, N-(5-(3-(7-(4-Fluorophenyl)-3H-imidazo[4,5-c]pyridin-2-yl)-1H-pyrazolo[4,3-b]pyridin-5-yl)pyridin-3-yl)pivalamide]	6230 nM	> 10 µM	2730 nM	35.9%	–	–
